Measurements as given in US9675607B2, “Epimorphic regeneration and related hydrogel delivery systems” (Northwestern University, priority 2013, dated 2017).
Entries after “also recorded” stand apart in the source; their conditions may differ.

Legend:
[1] = system: hydroxylases (PHDs and FIH); details: cited from earlier work
[2] = system: collagen hydroxylation; details: rats given this compound; cited from earlier work
[3] = system: SW ear tissue; experiment: Histology, immunostaining and qPCR of injured ear tissue of SW mice; type: in vivo, mouse
Method: (§1) Total RNA from ear fibroblast-like cells or ear hole donuts was prepared with Qiagen RNeasy kit (Qiagen) according to the manufacturer's guidelines. First strand cDNA was synthesized from 1 μg of RNA using the Superscript First-Strand Synthesis System (Invitrogen, Carlsbad, Calif.) according to the manufacturer's instructions. qPCR was performed with SYBR green PCR Master Mix (Applied Biosystems, Life Technologies). In brief, a 20 μl mixture was used containing 10 μl SYBR Green PCR master mix, 1 μl forward and reverse primer, 6 μl sterile water, and 2 μl of complementary DNA template. A negative control (non-template control) was performed in each run. The real-time PCR was performed using a Quant Studio 6 Flex (Applied Biosystems) according to the manufacturer's instructions. All data were normalized to 18S rRNA and quantitative measurements were obtained using the ΔΔCT method. (The primers used are listed with the kit, but not shown, here.
The methods used were performed as previously described. Tissue from normal ears were fixed with Prefer fixative (the active ingredient is glyoxal) (Anatech) overnight and then washed in H2O. Tissue was embedded in paraffin and 5-μm thick sections cut. Before staining, slides were dewaxed in xylene and rehydrated. Antigen retrieval was performed by autoclaving for 20 min in 10 mM Sodium Citrate, pH 6.0. Tissue sections were then treated with 3% H2O2 and nonspecific binding was blocked with 4% BSA (A7906; Sigma) for 1 h. For immunocytochemistry staining, primary ear skin fibroblasts were grown on coverslips in DMEM with 10% FBS at 37° C. in a humidified 5% CO2 incubator. The coverslips were rinsed with 1×PBS, the cells were fixed in cold methanol (−20° C.) for 10 min, rinsed with 1×PBS, treated with 0.1% Triton-X100, and then incubated with the appropriate primary and secondary antibodies (Table 1). Photomicrographs were produced using the fluorescent microscope (Olympus AX70) and a Spot camera with bundled software.
For histological stains, tissue sections were treated the same as above and then stained with Hematoxylin (Leica Microsystems, #3801562) and Eosin (Leica Microsystems, #3801602), Picro-Sirius Red (Poly Scientific, cat. # s2365), Alcian blue (1% in 3% acetic acid (Polyscience, Bay Shore, N.Y., cat # S111A), or toluidine blue O (Allied Chemical, Morristown, N.J., cat. # NA0652), counterstained with Kernechtrot (Polyscience, Bay Shore, N.Y., cat # S248). The slides were washed, […], cleared with Xylene and coverslipped with Permount mounting media (Fisher, SP15-500). Staining was visualized using an Olympus (AX70) microscope in bright field for H&E and under polarized light for Picro-Sirius Red.
For quantitation of IHC signal, the method used was previously described. Briefly, we used ImagePro v4.0 for image analysis by selecting positive staining from multiple areas in the sections. The number of “positive staining” pixels was determined. The area was expressed in square microns and the final data were expressed as IHC staining signal per square micron. The mean of 2-6 samples were plotted and standard errors calculated.

[4] = system: prolyl 4-hydroxylase; details: cited from earlier work
[5] = system: HIF1a; experiment: HIF1a levels in injured ear tissue of SW mice after subcutaneous drug/gel injection (Western, IHC); type: in vivo, mouse; details: single 100 ul injection, 2 mg/ml drug microcrystals; Western and IHC
Method: The kinetics of the effectiveness of the drug/gel construct in the injured ear was examined to determine how often re-injection would be necessary. After earpunching, a single injection (100 ul) of hydrogel containing either 2 mg/ml drug microcrystals (Gd) or 0 mg/ml drug microcrystals (G0) was given plus an un-injected group. Ears were harvested daily for 5 days (FIG. 3D).
(§2) Ear tissue samples (3 ear hole donuts/ear from 3 separate mice) were homogenized in radio-immunoprecipitation assay buffer (50 mM Tris-HCl pH 7.6, containing 150 mM NaCl,1% Triton X-100, 1% sodium deoxycholate, 1 mM EDTA and 0.1% SDS) with 1 mM PMSF and a protease inhibitor cocktail (Sigma). Samples with equal amounts of protein (about 40 μg) were loaded into a NuPAGE 4-12% Bis-Tris gradient gel or 8% Bis-Tris gel (Life Technologies, Grand Island, N.Y.), electrophoresed and then electro-transferred onto a PVDF-FL membrane (Immobilon, Billerica, Mass.).
The methods used were performed as previously described. […]
For quantitation of IHC signal, the method used was previously described. […] The number of “positive staining” pixels was determined. The area was expressed in square microns and the final data were expressed as IHC staining signal per square micron. The mean of 2-6 samples were plotted and standard errors calculated. […]

[6] = system: HIF2a; experiment: HIF2a levels in injured ear tissue of SW mice (Western); type: in vivo, mouse
Method: as §2
Mice were injected subcutaneously at the base of the neck with 100 μL of 10% (w/v) 1:1 (w/w) ratio of P8Cys (with or without 1,4-DPCA drug crystal) to P8NHS hydrogel prepared in PBS. Each component was kept cold and mixed just prior to injection. At different time points, mice were euthanized and tissues were removed for protein and RNA analysis.

[7] = Solubility of 1,4-DPCA; type: physicochemical
[8] = system: HIF target gene transcription; experiment: RT-PCR of HIF target gene transcription in treated B6 cells; type: cell-based, mouse
Method: as §1

[9] = system: diabetic wound; details: applied directly to the wound site; cited from earlier work
[10] = system: 3T3 fibroblasts; experiment: Cell viability, ISO 10993 neutral red; type: cell-based; details: 24 hours, positive control
Method: Viability of 3T3 fibroblasts exposed to drug microcrystals was quantified using ISO 10993. Briefly, different dilutions of drug microcrystals in cell culture medium were added to a subconfluent monolayer of 3T3 fibroblasts (n=3). The cells were cultured for 24 hours at 37° C., 5% CO2, and >90% RH and then washed with PBS. Neutral red solution (0.4%) in DMEM was added, and the cells were stained for 3 hours. Following removal of the staining solution and washing the cells with PBS, the cells were destained using 50% ethanol, 49% ddH2O and 1% glacial acetic acid. Following 10 minutes of agitation, absorbance was measured at 540 nm and used to quantify cell viability. […] Culture medium was used as a negative control. Cell culture medium consisted of high glucose DMEM substituted with L-glutamine, penicillin/streptomycin, 10% v/v newborn calf serum and 20 mM HEPES.

[11] = system: Swiss Webster (SW) mice; experiment: Ear hole closure in ear-punched Swiss Webster mice; type: in vivo, mouse; details: SW mice given 2 mg/ml drug/gel 3 times plus the inhibitor
From the text: Inbred mouse strains were used to study the effect of a small molecule inhibitor of PHD on in-vitro and in-vivo levels of HIF1a, and the impact of this on quantitative regenerative ear hole closure phenotypes. In animal studies, 2.1 mm ear hole punch wounds were created and a 1,4-DPCA-containing hydrogel was subcutaneously implanted in the back of the neck of mice at multiple time-points. Healing was monitored by measuring hole diameters. Endpoints of the study were previously determined to be 30+ days post-injury and included key indices of tissue regeneration such as blastema formation, epithelial, dermal, and cartilaginous wound closure with hair follicle replacement plus multiple molecular markers of cellular de-differentiation, re-differentiation, and stem cell state. These parameters were determined by physical measurements of wound closure, standard tissue histology and histomorphometry, and gene expression using quantitative immunohistochemistry, western analysis, and qPCR. The experimental groups were coded and different laboratory personnel were involved in injuries, injections, phenotyping and data analysis. […]

[12] = day 7, 1,4-DPCA drug/gel-treated SW mice plus inhibitor

## O=C(O)c1c[nH]c2c(ccc3cccnc32)c1=O [1,4-DPCA, 1,4-dihydrophenonthrolin-4-one-3-carboxylic acid]
[1]
  inhibition of the hydroxylases in-vitro and in-vivo at the protein level: potent inhibitor
[2]
  collagen hydroxylation and collagen deposition: inhibition of collagen hydroxylation and a reduction in collagen deposition
[3]; SW ear tissue, immunostaining
  Laminin (basement membrane) in ear tissue: reduced
  MMP9 in ear tissue: increased
  inflammatory cell markers MPO and Ly6G in ear tissue: increased
[4]
  inhibition of prolyl 4-hydroxylase: selective and potent inhibitor
[5]
  day on which HIF1a levels in the ear begin to rise: 1 days
  days of peak HIF1a levels in the ear post-injection: 3 to 4 days
[6]
  HIF2a in ear tissue in-vivo: barely affected
[7]
  solubility in water: low solubility
[8]
  HIF target genes Vegf, Hmox1, Ldh-a, Pgk, Pdk1, Glut1 mRNA: specifically increased

## CC(=O)N(O)CCCCCNC(=O)CCC(=O)N(O)CCCCCNC(=O)CCC(=O)N(O)CCCCCN [DFX, desferrioxamine B]
[9]
  diabetic wound healing: enhance diabetic wound healing

## COC(=O)CNC(=O)C(=O)OC [DMOG, dimethyloxallyl glycine]
[9]
  diabetic wound healing: enhance diabetic wound healing

## CCCCCCCCCCCCOS(=O)(=O)[O-].[Na+] [SDS]
[10]
  IC50, cell viability: in the acceptable range

## Endostatin
[11]
  effect on ear hole closure induced by 1,4-DPCA drug/gel: almost complete blockage of ear hole closure
[3]; [12]
  HIF1a, CD31 and OCT3/4 staining: near complete absence
  MMP-9, MPO and neutrophil specific-marker: did not inhibit; also recorded: to a lesser degree
[3]; day 7, 1,4-DPCA drug/gel-treated SW mice, endostatin compared with siHif1a_3
  laminin staining: greater degree of inhibition
